This note sets out measurements from paper PMC10001950 (International Journal of Molecular Sciences, 2023).

The target of assay [1] is T1, BoNT/A LC (Clostridium botulinum, UniProt P0DPI0). Kind of assay: biochemical. The note with it: read-out: inhibited BoNT/A LC activity.
In assay [2] the target is T1, BoNT/A LC. Kind of assay: biochemical. In kind it is biochemical.
Assay [3] has as its system BoNT/A1 cleavage of SNAP-25 in hiPSC-derived motor neurons. Kind of assay: cells. It is filed as cell-based, human.
The target in assay [4] is BoNT/A LC WT (Clostridium botulinum, UniProt P0DPI0). In kind it is binding.
BoNT/A LC WT, sequence (P0DPI0 2-448 limits assumed): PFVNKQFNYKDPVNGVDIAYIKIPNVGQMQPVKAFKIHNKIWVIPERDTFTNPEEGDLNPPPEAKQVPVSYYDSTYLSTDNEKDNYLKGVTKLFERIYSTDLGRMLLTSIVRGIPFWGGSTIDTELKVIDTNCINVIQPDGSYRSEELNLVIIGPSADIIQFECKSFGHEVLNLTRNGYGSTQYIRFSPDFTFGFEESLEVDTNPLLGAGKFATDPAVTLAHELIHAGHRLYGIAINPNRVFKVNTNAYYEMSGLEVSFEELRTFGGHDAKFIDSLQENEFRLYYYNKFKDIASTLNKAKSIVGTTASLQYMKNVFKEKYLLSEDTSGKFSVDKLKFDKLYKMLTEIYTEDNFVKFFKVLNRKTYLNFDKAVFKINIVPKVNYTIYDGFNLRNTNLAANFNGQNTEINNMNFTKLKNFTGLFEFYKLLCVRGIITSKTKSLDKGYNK
Assay [5] has as its target T1, BoNT/A LC. The experiment in a line: biochemical.

Like-named read-outs stand apart in the source and are kept apart here.

T1 sequence (P0DPI0 2-448 limits assumed): as above

Turning to `O=C(O)C1CNCCN(Cc2cc(=O)n3cccc(O)c3n2)C1` (centres unmarked) [Compound 1], in assay [1], the inhibition at 40 µM was over 90%. In assay [2], this compound yielded a 50% inhibitory concentration (IC50) of 7400 ± 500 nM.
For `O=c1cc(CNCc2ccccc2)nc2c(O)cccn12` [Compound 2, 2-((Benzylamino)methyl)-9-hydroxy-4H-pyrido [1,2-a]pyrimidin-4-one], the “inhibition of SNAP-25 cleavage (in words)” value (from here on “inhibition … (in words)”) in assay [3] was “neither 2 nor 18 inhibited the cleavage of SNAP-25”. In addition, the “covalent adduct formation by HRMS (in words)” value (“covalent adduct formation” below) in assay [4] is “Neither of the reversible compounds 2 and 27 showed any change in mass”. Moreover, in assay [2], the IC50 was found to be 900 ± 200 nM and the “fold more potent than initial lead 1” value is on record as “approximately seven-fold”.
In the case of `O=c1cc(CNCc2cccc(Cl)c2)nc2c(O)cccn12` [Compound 18, 2-(((3-Chlorobenzyl)amino)methyl)-9-hydroxy-4H-pyrido [1,2-a]pyrimidin-4-one], the “inhibition … (in words)” value in assay [3] is on record as “neither 2 nor 18 inhibited the cleavage of SNAP-25”. This compound also displayed a 50% inhibitory concentration (IC50) in assay [2] of 1700 ± 300 nM.
Regarding `O=c1cc(CNCc2ccc(-c3ccccc3)cc2)nc2c(O)cccn12` [Compound 27, 2-((([1,1′-biphenyl]-4-ylmethyl)amino)methyl)-9-hydroxy-4H-pyrido [1,2-a]pyrimidin-4-one], it took 13000 nM to reach half-maximal inhibition in assay [3] (Homo sapiens, Neuron, 0.5 h) (IC50). For the same compound, in assay [4], the “covalent adduct formation” value is “Neither of the reversible compounds 2 and 27 showed any change in mass”. Further, in assay [2], the IC50 stood at 300 ± 100 nM, affinity was put at a Ki of 150 nM and the “potency compared to 2 (in words)” value is “significantly increased inhibitory potency”.
On to `O=c1cc(COCc2cccc(F)c2)nc2c(O)cccn12` [Compound 32, 2-(((3-Fluorobenzyl)oxy)methyl)-9-hydroxy-4H-pyrido [1,2-a]pyrimidin-4-one], for which the “protection of SNAP-25 (in words)” value in assay [3] is reported as “nearly complete protection of SNAP-25”. In assay [2], half-maximal inhibition (IC50) required 11000 ± 1000 nM and the “less potent than 2 in the enzyme assay” value is reported as about 10 fold.
On to `O=c1cc(COCc2cccc(Cl)c2)nc2c(O)cccn12` [Compound 35, 2-(((3-Chlorobenzyl)oxy)methyl)-9-hydroxy-4H-pyrido [1,2-a]pyrimidin-4-one], for which the “inhibition … (in words)” value in assay [3] is listed as “did not have any apparent effect on SNAP-25 cleavage”. This compound also displayed a half-maximal inhibitory concentration (IC50) in assay [2] of 7500 ± 500 nM.
The compound `O=c1cc(CN2Cc3ccc(Cl)cc3C2)nc2c(O)cccn12` [Compound 43, 2-((5-Chloroisoindolin-2-yl)methyl)-9-hydroxy-4H-pyrido [1,2-a]pyrimidin-4-one] returned a half-maximal inhibitory concentration (IC50) in assay [2] of 500 ± 200 nM.
As to `O=c1cc(CN2Cc3ccc(Br)cc3C2)nc2c(O)cccn12` [Compound 44, 2-((5-Bromoisoindolin-2-yl)methyl)-9-hydroxy-4H-pyrido [1,2-a]pyrimidin-4-one], inhibition in assay [2] was half-maximal at 400 ± 20 nM (IC50).
`O=c1cc(CN2Cc3ccc(-c4ccccc4)cc3C2)nc2c(O)cccn12` [Compound 45, 9-Hydroxy-2-((5-phenylisoindolin-2-yl)methyl)-4H-pyrido [1,2-a]pyrimidin-4-one] had a 50% inhibitory concentration (IC50) in assay [2] of 700 ± 100 nM.
Still for that read-out and setting: the result for `O=c1cc(CN2CCc3ccccc32)nc2c(O)cccn12` [Compound 46, 9-Hydroxy-2-(indolin-1-ylmethyl)-4H-pyrido [1,2-a]pyrimidin-4-one] reads 2900 ± 100 nM.
Turning to `O=c1cc(CN2CCc3cc(Cl)ccc32)nc2c(O)cccn12` [Compound 47, 2-((5-Chloroindolin-1-yl)methyl)-9-hydroxy-4H-pyrido [1,2-a]pyrimidin-4-one], the “protection of SNAP-25 (in words)” value in assay [3] was “protect against SNAP-25 cleavage”. The compound further yielded a 50% inhibitory concentration (IC50) in assay [2] of 900 ± 600 nM.
`O=c1cc(CN2CCc3cc(Br)ccc32)nc2c(O)cccn12` [Compound 48, 2-((5-Bromoindolin-1-yl)methyl)-9-hydroxy-4H-pyrido [1,2-a]pyrimidin-4-one] showed a 50% inhibitory concentration (IC50) in assay [2] of 700 ± 100 nM.
The same measure, in the same setting: next, `O=c1cc(CN2CCc3ccc(Br)cc32)nc2c(O)cccn12` [Compound 49, 2-((6-Bromoindolin-1-yl)methyl)-9-hydroxy-4H-pyrido [1,2-a]pyrimidin-4-one]: 700 ± 50 nM; `Cc1cccc2c1N(Cc1cc(=O)n3cccc(O)c3n1)CC2` [Compound 50, 9-Hydroxy-2-((7-methylindolin-1-yl)methyl)-4H-pyrido [1,2-a]pyrimidin-4-one]: 24000 ± 14000 nM.
The compound `COc1ccc2c(c1)N(Cc1cc(=O)n3cccc(O)c3n1)CC2` [Compound 51, 9-Hydroxy-2-((6-methoxyindolin-1-yl)methyl)-4H-pyrido [1,2-a]pyrimidin-4-one] returned a 50% inhibitory concentration (IC50) in assay [2] of over 64000 nM.
As for `COC(=O)c1ccc2c(c1)CCN2Cc1cc(=O)n2cccc(O)c2n1` [Compound 52, Methyl1-((9-hydroxy-4-oxo-4H-pyrido [1,2-a]pyrimidin-2-yl)methyl)indoline-5-carboxylate], in assay [2], inhibition was half-maximal at 1200 ± 700 nM (IC50).
In turn, `COC(=O)c1ccc2c(c1)N(Cc1cc(=O)n3cccc(O)c3n1)CC2` [Compound 53, Methyl-1-((9-hydroxy-4-oxo-4H-pyrido [1,2-a]pyrimidin-2-yl)methyl)indoline-6-carboxylate] displayed an IC50 in assay [2] of 1100 ± 100 nM.
Regarding `O=C(O)c1ccc2c(c1)N(Cc1cc(=O)n3cccc(O)c3n1)CC2` [Compound 54, 1-((9-Hydroxy-4-oxo-4H-pyrido [1,2-a]pyrimidin-2-yl)methyl)indoline-6-carboxylic acid], in assay [3], the “protection of SNAP-25 (in words)” value is “protect against SNAP-25 cleavage”. This compound also gave a concentration for half-maximal inhibition (IC50) in assay [2] of 1200 ± 100 nM.
Regarding `O=c1cc(CN2CCc3cc(-c4ccccc4)ccc32)nc2c(O)cccn12` [Compound 55, 9-Hydroxy-2-((5-phenylindolin-1-yl)methyl)-4H-pyrido [1,2-a]pyrimidin-4-one], the half-maximal inhibitory concentration (IC50) in assay [2] was determined as 900 ± 300 nM.
The same measure, in the same setting: next, `O=c1cc(CN2CCc3ccc(-c4ccccc4)cc32)nc2c(O)cccn12` [Compound 56, 9-Hydroxy-2-((6-phenylindolin-1-yl)methyl)-4H-pyrido [1,2-a]pyrimidin-4-one]: 600 ± 100 nM.
Turning to `CS(=O)(=O)SCCCCCc1ccn2c(=O)cc(CNCc3ccc(-c4ccccc4)cc3)nc2c1O` [Compound 82, S-(6-(2-((([1,1′-biphenyl]-4-ylmethyl)amino)methyl)-9-hydroxy-4-oxo-4H-pyrido [1,2-a]pyrimidin-8-yl)pentyl) methanesulfonothioate], the “covalent adduct formation” value in assay [4] was “an increase in mass matching two covalent adducts”. Also, in assay [5], the Ki was determined as 1870 ± 110 nM, the inactivation rate constant (kinact) is 0.0024 ± 0.0002 s⁻¹ and the second-order inactivation constant (kinact/KI) came to 1260 ± 130 M⁻¹ s⁻¹.
Consider `CS(=O)(=O)SCCCCCCc1ccn2c(=O)cc(CNCc3ccc(-c4ccccc4)cc3)nc2c1O` [Compound 83, S-(6-(2-((([1,1′-biphenyl]-4-ylmethyl)amino)methyl)-9-hydroxy-4-oxo-4H-pyrido [1,2-a]pyrimidin-8-yl)hexyl) methanesulfonothioate], for which, in assay [5], the Ki is 3400 ± 500 nM, the kinact was found to be 0.0028 ± 0.0002 s⁻¹ and the kinact/KI is 820 ± 30 M⁻¹ s⁻¹.
`CS(=O)(=O)SCCCCCCCc1ccn2c(=O)cc(CNCc3ccc(-c4ccccc4)cc3)nc2c1O` [Compound 84]: in assay [5], the Ki came out at 32000 ± 6000 nM, the kinact worked out at 0.0038 ± 0.0008 s⁻¹ and the second-order inactivation constant (kinact/KI) turned out to be 120 ± 30 M⁻¹ s⁻¹.

Usually IC50 stands for the midpoint of a concentration-inhibition curve. The low end stands for higher potency, the high end for lower potency. The Ki is the dissociation constant of the complex between target and ligand, obtained from inhibition or displacement. As usually defined, the kinact is the rate constant of inactivation at saturating inhibitor. One may read the kinact/KI as the maximal inactivation rate divided by the concentration that gives half of it.
